{"source": "patent US9067894B1", "about": "“Compound, composition, and method of activating GIRK potassium channel and use of same for treating conditions of interest” (Vanderbilt University, priority 2013, dated 2015)", "key": {"Muscarinic M3": {"molecular_target": "T1, Muscarinic M3 (Homo sapiens, UniProt P20309)", "T1 construct": "Ricerca (contract laboratory that ran the panel)", "T1 sequence (P20309 whole entry)": "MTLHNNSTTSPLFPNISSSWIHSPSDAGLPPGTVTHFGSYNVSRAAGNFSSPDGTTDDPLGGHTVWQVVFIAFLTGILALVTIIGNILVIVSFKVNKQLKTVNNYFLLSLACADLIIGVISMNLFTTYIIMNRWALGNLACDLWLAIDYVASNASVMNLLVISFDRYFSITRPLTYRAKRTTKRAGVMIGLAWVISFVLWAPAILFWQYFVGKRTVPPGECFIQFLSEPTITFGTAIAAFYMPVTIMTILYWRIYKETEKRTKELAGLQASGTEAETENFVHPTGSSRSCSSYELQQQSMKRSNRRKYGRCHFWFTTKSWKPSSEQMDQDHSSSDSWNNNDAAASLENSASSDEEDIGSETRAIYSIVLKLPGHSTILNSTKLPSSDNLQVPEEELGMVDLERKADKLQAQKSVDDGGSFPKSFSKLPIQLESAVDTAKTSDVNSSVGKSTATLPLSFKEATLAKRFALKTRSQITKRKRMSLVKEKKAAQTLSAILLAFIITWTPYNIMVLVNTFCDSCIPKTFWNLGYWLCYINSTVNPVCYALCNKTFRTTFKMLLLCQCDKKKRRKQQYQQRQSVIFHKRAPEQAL", "assay": "Radioligand displacement (Ricerca)", "format": "binding"}, "Sigma σl": {"molecular_target": "T2, Sigma σl (Homo sapiens, UniProt Q99720)", "T2 construct": "Ricerca (contract panel)", "T2 sequence (Q99720 whole entry)": "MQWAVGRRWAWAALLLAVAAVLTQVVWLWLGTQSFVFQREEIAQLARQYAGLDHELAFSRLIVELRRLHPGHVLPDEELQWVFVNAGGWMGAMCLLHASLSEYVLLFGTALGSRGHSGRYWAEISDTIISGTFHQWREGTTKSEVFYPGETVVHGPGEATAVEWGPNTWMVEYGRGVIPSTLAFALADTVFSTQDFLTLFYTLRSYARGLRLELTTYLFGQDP", "assay": "Radioligand displacement (Ricerca)", "format": "binding"}, "Muscarinic M1": {"molecular_target": "T3, Muscarinic M1 (Homo sapiens, UniProt P11229)", "T3 construct": "Ricerca (contract laboratory that ran the panel)", "T3 sequence (P11229 whole entry)": "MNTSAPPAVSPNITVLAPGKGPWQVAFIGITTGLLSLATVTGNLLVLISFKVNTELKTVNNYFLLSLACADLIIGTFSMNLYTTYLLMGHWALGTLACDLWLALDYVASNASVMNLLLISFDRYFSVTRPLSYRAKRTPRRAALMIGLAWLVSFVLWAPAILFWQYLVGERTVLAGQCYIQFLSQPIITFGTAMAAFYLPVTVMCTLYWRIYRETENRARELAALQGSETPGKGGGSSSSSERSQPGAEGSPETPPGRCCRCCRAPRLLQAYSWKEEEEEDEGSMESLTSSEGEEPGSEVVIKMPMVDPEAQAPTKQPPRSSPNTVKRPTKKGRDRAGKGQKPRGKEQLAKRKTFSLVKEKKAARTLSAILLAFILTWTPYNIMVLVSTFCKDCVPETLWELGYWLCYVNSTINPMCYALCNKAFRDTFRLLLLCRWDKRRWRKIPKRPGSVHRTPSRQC", "assay": "Radioligand displacement (Ricerca)", "format": "binding"}, "Cannabinoid CB1": {"molecular_target": "T4, Cannabinoid CB1 (Homo sapiens, UniProt P21554)", "T4 construct": "Ricerca", "T4 sequence (P21554 whole entry)": "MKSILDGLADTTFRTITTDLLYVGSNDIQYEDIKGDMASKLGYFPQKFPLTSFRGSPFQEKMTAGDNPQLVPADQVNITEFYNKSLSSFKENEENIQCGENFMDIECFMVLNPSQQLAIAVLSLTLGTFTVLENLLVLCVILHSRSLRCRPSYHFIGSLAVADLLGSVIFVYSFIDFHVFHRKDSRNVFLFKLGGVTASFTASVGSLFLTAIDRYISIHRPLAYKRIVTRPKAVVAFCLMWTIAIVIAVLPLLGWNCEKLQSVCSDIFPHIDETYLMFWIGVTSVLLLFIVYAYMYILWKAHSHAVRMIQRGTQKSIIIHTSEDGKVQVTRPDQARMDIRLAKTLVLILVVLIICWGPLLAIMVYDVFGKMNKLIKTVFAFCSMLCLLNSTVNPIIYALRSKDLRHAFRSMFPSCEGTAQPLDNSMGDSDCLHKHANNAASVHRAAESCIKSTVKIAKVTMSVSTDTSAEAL", "assay": "Radioligand displacement (Ricerca)", "format": "binding"}, "GIRK1/2": {"molecular_target": "T5, GIRK1/2 (Homo sapiens, UniProt P48051+P48549)", "T5 sequence (P48549 1-501)": "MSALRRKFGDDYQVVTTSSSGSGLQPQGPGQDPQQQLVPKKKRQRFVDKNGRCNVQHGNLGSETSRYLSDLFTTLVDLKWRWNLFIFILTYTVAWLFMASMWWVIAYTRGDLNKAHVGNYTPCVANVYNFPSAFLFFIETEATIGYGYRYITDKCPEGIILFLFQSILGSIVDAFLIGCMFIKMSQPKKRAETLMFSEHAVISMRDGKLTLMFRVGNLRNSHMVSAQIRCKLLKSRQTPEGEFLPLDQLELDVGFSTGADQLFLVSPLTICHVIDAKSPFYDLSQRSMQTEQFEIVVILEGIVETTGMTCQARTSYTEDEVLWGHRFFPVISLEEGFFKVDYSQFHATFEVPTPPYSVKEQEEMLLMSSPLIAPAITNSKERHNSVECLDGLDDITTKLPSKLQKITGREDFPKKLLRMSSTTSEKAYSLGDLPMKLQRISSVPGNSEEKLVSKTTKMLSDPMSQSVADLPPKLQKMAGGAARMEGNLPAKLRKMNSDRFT", "T5 sequence (P48051 1-423)": "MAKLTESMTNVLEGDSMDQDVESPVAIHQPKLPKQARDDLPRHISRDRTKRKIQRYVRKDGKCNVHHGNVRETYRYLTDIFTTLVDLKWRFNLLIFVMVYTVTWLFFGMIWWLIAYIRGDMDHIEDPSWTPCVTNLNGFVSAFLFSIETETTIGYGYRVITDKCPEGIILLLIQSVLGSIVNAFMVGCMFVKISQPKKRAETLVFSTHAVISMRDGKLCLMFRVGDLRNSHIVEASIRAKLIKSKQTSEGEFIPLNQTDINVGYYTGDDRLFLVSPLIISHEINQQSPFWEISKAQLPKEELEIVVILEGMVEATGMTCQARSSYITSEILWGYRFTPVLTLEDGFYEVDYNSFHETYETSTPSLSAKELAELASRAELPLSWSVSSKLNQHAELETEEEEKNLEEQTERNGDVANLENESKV", "assay": "Thallium flux assay, HEK-293 cells expressing GIRK1/2", "format": "cell-based", "parameters": "host or cells: HEK-293", "conditions": "cell line GIRK1-2; average ± SEM; read-out: EC50 Thallium Flux", "source_text": "Cell Line Construction and Cell Culture. HEK-293 cells co-expressing human GIRK1/2 and rat mGlu8 were generated as previously described (Niswender et al., 2008). A HEK-293 cell line (ATCC, Manassas, Va.) expressing human GIRK1 and human GIRK2 was constructed by transfecting HEK-293 cells with GIRK1 and GIRK2 (Origene, Rockville, Md.) cloned into the pBudCE4.1 vector (Life Technologies, Carlsbad, Calif.) using FuGene 6 (Promega, Madison, Wis.) transfection reagent. Unless otherwise noted, other ion channel-expressing cells were prepared by transfecting HEK-293 cells with individual or combinations of subunits: GIRK1, pCMV6-A-BSD; GIRK2, pCMV6-A-puro; GIRK3, pCMV6-A-hygro; GIRK4, pCMV6-A-AC; Kv7.4, pIRESneo3. The Kir2.1 and hERG-expressing cell lines were made by transfecting T-REx-293 cells (Life Technologies, Carlsbad, Calif.) with Kir2.1 and Kv11.1, respectively, cloned into pcDNA5TO. Monoclonal cell lines were produced by limiting-dilution cloning of antibiotic-resistant cells and functional selection using the thallium flux assay described below. Unless otherwise noted, cells were maintained in Minimal Essential Medium, Alpha Medium (Mediatech, Manassas, Va.) supplemented with 10% fetal bovine serum (Sigma-Aldrich, Saint Louis, Mo.) and GlutaGro (Mediatech, Manassas, Va.), referred to henceforth as cell culture medium. […]"}, "GABAA (muscimol)": {"tested_on": "GABAA (muscimol)", "assay": "Radioligand displacement (Ricerca)", "format": "binding, rat", "conditions": "10 μM"}}, "data": [{"compound": "Cc1cc(NC(=O)Nc2ccc(F)c(F)c2)n(-c2ccccc2)n1", "note": "[VU0456810, 1-(3,4-difluorophenyl)-3-(3-methyl-1-phenyl-1H-pyrazol-5-yl)urea]", "values": [{"measurement": "inhibition at 10 µM", "setting": "Muscarinic M3", "result": 13, "unit": "%"}, {"measurement": "inhibition at 10 µM", "setting": "Sigma σl", "result": "< 50", "unit": "%"}, {"measurement": "% Inhibition", "setting": "Sigma σl; 10 μM", "result": 49, "unit": "%"}, {"measurement": "inhibition at 10 µM", "setting": "Muscarinic M1", "result": 0, "unit": "%"}, {"measurement": "inhibition at 10 µM", "setting": "Cannabinoid CB1", "result": 8, "unit": "%"}, {"measurement": "EC50", "setting": "GIRK1/2", "result": "0.162 ± 0.089", "unit": "µM"}, {"measurement": "% Inhibition", "setting": "GABAA (muscimol)", "result": 49, "unit": "%"}]}]}
